Values quoted from earlier work as cited in patent US20170240913A1, “Methods and Materials for Producing Coreless Fruit” (The New Zealand Institute for Plant and Food Research …, priority 2014, published 2017).

Tested on: frost-damaged Bramley's Seedling
Conditions: frost-damaged Bramley's Seedling (triploid, partially self-fertile)

Structure (SMILES) | parthenocarpy
C=C1C[C@]23C[C@@]1(O)CC[C@H]2[C@@]12C=C[C@H](O)[C@@](C)(C(=O)O1)[C@H]2[C@@H]3C(=O)O [GA3] | not effective
c1ccc(CNc2ncnc3c2ncn3C2CCCCO2)cc1 (centres unmarked) [SD8339] | no additional benefits
